Drawing on publication PMC9821324, “Pinostrobin Suppresses the α-Melanocyte-Stimulating Hormone-Induced Melanogenic Signaling Pathway” (International Journal of Molecular Sciences, 2023), this text covers inhibition for one compound.

Broadly, the inhibition is the change of the read-out against control, counted positive when it falls.

The assay concerns the target T1, mushroom tyrosinase (Agaricus bisporus, UniProt C7FF04).
T1 construct: gene PPO3
Description: cell-free mushroom tyrosinase assay with L-tyrosine, absorbance at […] nm, single concentration […]. Type of assay: biochemical. The conditions noted are these: read-out: % inhibition at 250 nM.

Structures are written as SMILES.

T1 sequence (C7FF04 2-392): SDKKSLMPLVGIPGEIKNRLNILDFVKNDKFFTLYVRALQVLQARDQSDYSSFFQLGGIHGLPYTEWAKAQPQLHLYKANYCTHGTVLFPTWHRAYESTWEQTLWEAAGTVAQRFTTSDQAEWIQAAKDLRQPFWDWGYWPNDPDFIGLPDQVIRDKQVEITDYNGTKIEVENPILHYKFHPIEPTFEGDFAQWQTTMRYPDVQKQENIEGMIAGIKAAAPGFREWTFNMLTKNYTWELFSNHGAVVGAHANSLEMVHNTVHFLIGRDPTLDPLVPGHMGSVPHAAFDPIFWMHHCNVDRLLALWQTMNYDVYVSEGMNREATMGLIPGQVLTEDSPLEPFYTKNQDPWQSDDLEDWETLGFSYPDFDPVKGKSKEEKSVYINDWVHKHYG

As for `NC(=S)Nc1ccccc1` [PTU, phenylthiourea], the inhibition at 0.25 µM worked out at 74.7%.
